What was measured:
[1] = guinea pig, in vivo
neurotensin receptors = settings: in vivo; cited from earlier work

Molecule | duration of local anesthesia [1] | potency in inhibiting pain relative to neurotensin (neurotensin receptors)
CCCCN1CCCCC1C(=O)Nc1c(C)cccc1C (centres unmarked) [bupivacaine] | slightly longer duration thatn lidocaine | 
contulakin-G |  | significantly more potent than neurotensin

Reference: US6727226B2 (priority 2000, dated 2004)
